Assay results reported in patent publication US20240150848A1, “METHODS AND SYSTEMS FOR DIAGNOSIS, CLASSIFICATION, AND TREATMENT OF SMALL CELL LUNG CANCER AND OTHER HIGH-GRADE NEUROENDOCRINE CARCINOMAS” (BOARD OF REGENTS, THE UNIVERSITY OF TEXAS SYSTEM, priority 2021, published 2024).

System: SCLC-A and SCLC-N cell lines
Test: Comparison of IC50 values between cell lines assigned to SCLC-A and SCLC-N by the methylation classifier (SCLC-DMC)
Type: cell-based
Text: FIGS. 22A-22D show comparison of IC50 values for the BCL2i ABT-737 (FIG. 22A) and the AURKi CYC-116 (FIG. 22B) between cell lines assigned to SCLC-A and SCLC-N using SCLC-DMC. Clinical outcome depending on classification method used. Overall survival of ES-SCLC patients stratified by classification using the RNAseq signature or SCLC-DMC for SCLC-A (FIG. 22C) and SCLC-N(FIG. 22D). The box plot is highlighting the median as well as the 25th and 75th percentile in the box extended by 1.5× the IQR with bars. […] To validate that these same vulnerabilities are preserved using the methylation classifier (FIG. 30), the inventors compared IC50 values for over 400 drugs^24 between methylation-assigned SCLC-A and SCLC-N subtypes and identified numerous distinct vulnerabilities between the groups.

sensitivity by comparison of IC50 values (methylation-assigned SCLC-N cell lines compared with SCLC-A cell lines (FIG. 22B)) | sensitivity by comparison of IC50 values (methylation-assigned SCLC-A cell lines compared with SCLC-N cell lines (FIG. 22A)) | SMILES
more sensitive | – | Cc1nc(N)sc1-c1ccnc(Nc2ccc(N3CCOCC3)cc2)n1 [CYC-116]
– | more sensitive | CN(C)CC[C@H](CSc1ccccc1)Nc1ccc(S(=O)(=O)NC(=O)c2ccc(N3CCN(Cc4ccccc4-c4ccc(Cl)cc4)CC3)cc2)cc1[N+](=O)[O-] [ABT-737]
